Data reported in patent publication US8183239B2, “Substituted piperazines and piperidines as modulators of the neuropeptide Y2 receptor” (Janssen Pharmaceutica NV, priority 2005, dated 2012).

target: T1, Y2 receptors (Homo sapiens, UniProt P49146); experiment: Radioligand binding assay ([125I]PYY, KAN-Ts cell membranes); details: Table 2, [125I]PYY 80 pM, average of results, read-out: IC50
T1 construct: endogenous in cells; host or cells: KAN-Ts cells (membranes)
T1 sequence (P49146 1-381): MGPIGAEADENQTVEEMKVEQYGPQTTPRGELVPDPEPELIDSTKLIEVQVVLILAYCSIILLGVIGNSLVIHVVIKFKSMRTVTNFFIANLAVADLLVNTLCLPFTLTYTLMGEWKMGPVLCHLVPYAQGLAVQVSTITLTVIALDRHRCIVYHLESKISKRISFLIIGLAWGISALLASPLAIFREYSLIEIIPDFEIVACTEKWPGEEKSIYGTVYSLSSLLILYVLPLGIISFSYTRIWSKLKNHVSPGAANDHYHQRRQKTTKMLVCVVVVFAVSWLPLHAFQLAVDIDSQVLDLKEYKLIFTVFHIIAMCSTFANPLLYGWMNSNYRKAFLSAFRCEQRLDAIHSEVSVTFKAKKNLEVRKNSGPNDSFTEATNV
How it was run: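 Membranes from KAN-Ts cells endogenously expressing Y2 incubated 1 h at rt with 80 pM [^125I]PYY ± test compound in HEPES buffer with NaCl, Ca^2+ and Mg^2+. Bound radioactivity collected by filtration; specific binding defined with […]. IC50 from sigmoidal fit, averaged over 3-8 duplicate experiments.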

SMILES | IC50 [nM]
CCC(CC)C(=O)Nc1ccc(N2CCN(C(C(=O)N(CC)CC)c3ccccc3)CC2)c(C#N)c1F (stereo not shown) [Example 227, N-{3-Cyano-4-[4-(diethylcarbamoyl-phenyl-methyl)-piperazin-1-yl]-2-fluoro-phenyl}-2-ethyl-butyramide] | 116
CCN(CC)C(=O)C(c1ccccc1)N1CCN(c2ccc(NC(=O)C3CC4CCC3C4)cc2F)CC1 (stereo not shown) [Example 228, Bicyclo[2.2.1]heptane-2-carboxylic acid {4-[4-(diethylcarbamoyl-phenyl-methyl)-piperazin-1-yl]-3-fluoro-phenyl}-amide] | 120
CCN(CC)C(=O)C(c1ccccc1)C1CCN(c2ccc(NC(=O)C3CC3)cc2F)CC1 (stereo not shown) [Example 229, Cyclopropanecarboxylic acid {4-[4-(diethylcarbamoyl-phenyl-methyl)-piperidin-1-yl]-3-fluoro-phenyl}-amide] | 120
CCN(CC)C(=O)C(c1ccccc1)N1CCN(c2c(F)cc(NC(=O)C3CCCC3)cc2F)CC1 (stereo not shown) [Example 230, Cyclopentanecarboxylic acid {4-[4-(diethylcarbamoyl-phenyl-methyl)-piperazin-1-yl]-3,5-difluoro-phenyl}-amide] | 150
CCN(CC)C(=O)C(c1ccccc1)N1CCN(c2ccc(NC(=O)C3CCCC3)cc2C)CC1 (stereo not shown) [Example 231, Cyclopentanecarboxylic acid {4-[4-(diethylcarbamoyl-phenyl-methyl)-piperazin-1-yl]-3-methyl-phenyl}-amide] | 200
CCC(CC)C(=O)Nc1ccc(N2CCN(C(C(=O)N(CC)CC)c3ccccc3)CC2)c(C)c1 (stereo not shown) [Example 232, N-{4-[4-(Diethylcarbamoyl-phenyl-methyl)-piperazin-1-yl]-3-methyl-phenyl}-2-ethyl-butyramide] | 210
CCC(CC)C(=O)Nc1ccc(N2CCN(C(C(=O)N(CC)CC)c3ccccc3)CC2)c(F)c1F (stereo not shown) [Example 233, N-{4-[4-(Diethylcarbamoyl-phenyl-methyl)-piperazin-1-yl]-2,3-difluoro-phenyl}-2-ethyl-butyramide] | 270
CCC(CC)C(=O)Nc1ccc(N2CCC(C(C#N)c3ccccc3)CC2)c(F)c1 (stereo not shown) [Example 234, N-{4-[4-(Cyano-phenyl-methyl)-piperidin-1-yl]-3-fluoro-phenyl}-2-ethyl-butyramide] | 280
CCNC(=O)C(c1ccccc1)N1CCN(c2c(F)cc(NC(=O)[C@@H]3CCOC3)cc2F)CC1 (stereo partly drawn) [Example 236, (R)-Tetrahydro-furan-3-carboxylic acid {4-[4-(ethylcarbamoyl-phenyl-methyl)-piperazin-1-yl]-3,5-difluoro-phenyl}-amide] | 900
CCC(CC)C(=O)Nc1ccc(N2CCN(C(C(=O)N(CC)CC)c3ccccc3)CC2)cc1C#N (stereo not shown) [Example 237, N-{2-Cyano-4-[4-(diethylcarbamoyl-phenyl-methyl)-piperazin-1-yl]-phenyl}-2-ethyl-butyramide] | 1100
CCN(CC)C(=O)C(c1ccccc1)N1CCN(c2ccc(NC(=O)C3CCCC3)cc2OC)CC1 (stereo not shown) [Example 238, Cyclopentanecarboxylic acid {4-[4-(diethylcarbamoyl-phenyl-methyl)-piperazin-1-yl]-3-methoxy-phenyl}-amide] | 1300
CCNC(=O)C(c1ccccc1)N1CCN(c2c(F)cc(NC(=O)C3CCCC3)cc2F)CC1 (stereo not shown) [Example 239, Cyclopentanecarboxylic acid {4-[4-(ethylcarbamoyl-phenyl-methyl)-piperazin-1-yl]-3,5-difluoro-phenyl}-amide] | 2500
C#Cc1cc(NC(=O)C(CC)CC)ccc1N1CCN(C(C(=O)N(CC)CC)c2ccccc2)CC1 (stereo not shown) [Example 240, N-{4-[4-(Diethylcarbamoyl-phenyl-methyl)-piperazin-1-yl]-3-ethynyl-phenyl}-2-ethyl-butyramide] | 18
CCN(CC)C(=O)C(c1ccccc1)N1CCN(c2ccc(NC(=O)CC3CC3)cc2F)CC1 (stereo not shown) [Example 241, 2-{4-[4-(2-Cyclopropyl-acetylamino)-2-fluoro-phenyl]-piperazin-1-yl}-N,N-diethyl-2-phenyl-acetamide] | 300
CCN(CC)C(=O)C(c1ccccc1)N1CCN(c2ccc(NC(=O)CC3CCCC3)cc2F)CC1 (stereo not shown) [Example 242, 2-{4-[4-(2-Cyclopentyl-acetylamino)-2-fluoro-phenyl]-piperazin-1-yl}-N,N-diethyl-2-phenyl-acetamide] | 3000
CCN(CC)C(=O)C(c1ccccc1)N1CCN(c2ccc(NC(=O)C3CC3C)cc2F)CC1 (stereo not shown) [Example 243, 2-Methyl-cyclopropanecarboxylic acid {4-[4-(diethylcarbamoyl-phenyl-methyl)-piperazin-1-yl]-3-fluoro-phenyl}-amide] | 120
CCN(CC)C(=O)C(c1ccccc1)N1CCN(c2ccc(NC(=O)C3CCCC3)cc2F)CC1 (stereo not shown) [Example 244, Cyclopentanecarboxylic acid {4-[4-(diethylcarbamoyl-phenyl-methyl)-piperazin-1-yl]-3-fluoro-phenyl}-amide] | 80
CCC(CC)NC(=O)c1ccc(N2CCN(C(C(=O)N(CC)CC)c3ccccc3)CC2)c(F)c1 (stereo not shown) [Example 245, 4-[4-(Diethylcarbamoyl-phenyl-methyl)-piperazin-1-yl]-N-(1-ethyl-propyl)-3-fluoro-benzamide] | 3000
CCN(CC)C(=O)C(c1ccccc1)N1CCN(c2ccc(CNC(=O)C(C)CC(F)(F)F)cc2F)CC1 (stereo not shown) [Example 246, N-{4-[4-(Diethylcarbamoyl-phenyl-methyl)-piperazin-1-yl]-3-fluoro-benzyl}-4,4,4-trifluoro-2-methyl-butyramide] | 2200
CCN(CC)C(=O)C(c1ccccc1)N1CCN(c2ccc(CNC(=O)[C@H]3CCOC3)cc2F)CC1 (stereo partly drawn) [Example 247, (S)-Tetrahydro-furan-3-carboxylic acid 4-[4-(diethylcarbamoyl-phenyl-methyl)-piperazin-1-yl]-3-fluoro-benzylamide] | ≥ 10000
CCC(CC)C(=O)Nc1ccc(N2CCC([C@@H](C(=O)N(CC)CC)c3ccccc3)CC2)c(F)c1 [Example 248, (R)-(−)-N-{4-[4-(Diethylcarbamoyl-phenyl-methyl)-piperidin-1-yl]-3-fluoro-phenyl}-2-ethyl-butyramide] | 13
CCC(CC)C(=O)Nc1ccc(N2CCC([C@H](C(=O)N(CC)CC)c3ccccc3)CC2)c(F)c1 [Example 249, (S)—(+)-N-{4-[4-(Diethylcarbamoyl-phenyl-methyl)-piperidin-1-yl]-3-fluoro-phenyl}-2-ethyl-butyramide] | 100
CCC(CC)C(=O)Nc1ccc(N2CCN(C(C(=O)N(CC)CC)c3ccc(OC)cc3)CC2)c(C#N)c1 (stereo not shown) [Example 250, N-(3-Cyano-4-{4-[diethylcarbamoyl-(4-methoxy-phenyl)-methyl]-piperazin-1-yl}-phenyl)-2-ethyl-butyramide] | 9
CCC(CC)C(=O)Nc1ccc(N2CCN(C(C(=O)N(CC)CC)c3ccc(OC)cc3)CC2)c(F)c1 (stereo not shown) [Example 251, N-(4-{4-[Diethylcarbamoyl-(4-methoxy-phenyl)-methyl]-piperazin-1-yl}-3-fluoro-phenyl)-2-ethyl-butyramide] | 18
CCC(CC)C(=O)Nc1ccc(N2CCN(C(C(=O)N(CC)CC)c3ccc(O)cc3)CC2)c(F)c1 (stereo not shown) [Example 252, N-(4-{4-[Diethylcarbamoyl-(4-hydroxy-phenyl)-methyl]-piperazin-1-yl}-3-fluoro-phenyl)-2-ethyl-butyramide] | 104
